Some results are limits rather than exact numbers.

What is called GI50 is the concentration at which growth is held to half of that of the control.

The nature of experiment [1]: Antiangiogenic activity against human HREC cells assessed as inhibition of cell growth incubated for 44 hrs by Alamar Blue fluorescence assay. Type of experiment: functional. A general note: Alamar Blue is a resazurin reagent that responds to reducing activity.
The subject of the next experiment is HUVEC. Description: Antiangiogenic activity against HUVEC cells assessed as inhibition of cell growth incubated for 44 hrs by Alamar Blue fluorescence assay. The note with it: Homo sapiens. Type of experiment: functional.

Consider `COc1cc(O)c(OC)c2c1C[C@@H](Cc1ccc(O)cc1)CO2`, for which the GI50 (in experiment [1]; in the experiment on HUVEC) was more than 100 µM throughout.

For `COc1cc2c(c(O)c1OC)CC(Cc1ccc(O)cc1)CO2` (stereo unspecified), the GI50 was 3.47 µM in experiment [1] and 90.1 µM in the experiment on HUVEC.

For the compound `COc1cc(OC)c2c(c1O)OCC(Cc1ccc(O)cc1)C2` (stereo unspecified), the figures for the GI50 (in experiment [1]; in the experiment with HUVEC) were 28.3 µM and more than 100 µM, respectively.

For the compound `COc1c(O)cc2c(c1OC)C[C@H](Cc1ccc(O)cc1)CO2`, the GI50 (in experiment [1]; with HUVEC) was more than 100 µM throughout.

As to `COc1cc(O)c2c(c1OC)OCC(Cc1ccc(O)cc1)C2` (stereo unspecified), the GI50 (in experiment [1]; in the experiment on HUVEC) was more than 100 µM each time.

Consider `COc1cc2c(c(OC)c1O)CC(Cc1ccc(O)cc1)CO2` (stereo unspecified), for which the GI50 in experiment [1] is 0.96 µM; with HUVEC it was more than 100 µM.

For `COc1c(O)cc2c(c1OC)CC(Cc1ccc(O)cc1)CO2` (stereo unspecified), the GI50 (in experiment [1]; in the experiment on HUVEC) was more than 100 µM in each case.

In the case of `COc1c(O)cc2c(c1OC)C[C@@H](Cc1ccc(O)cc1)CO2`, the GI50 (in experiment [1]; in the experiment with HUVEC) was more than 100 µM each time.

The values are drawn from ChEMBL document CHEMBL5226366, “Synthesis and Structure Revision of Naturally Occurring Homoisoflavane (+)-Dracaeconolide B” (2023).
